Data on one substance can be found in patent publication US10807976B2, “Quinolinone five-membered heterocyclic compounds as mutant-isocitrate dehydrogenase inhibitors” (FORMA Therapeutics, Inc., priority 2015, dated 2020).

The target of the test is IDH1-R132H recombinant protein (Homo sapiens, UniProt O75874, R132H). Kind of test: IDH1-R132H enzymatic assay (diaphorase/resazurin, NADPH consumption). The note with it: 30 nM IDH1-R132H, inhibition of NADPH consumption; read-out: Enzyme IDH1 R132H IC50. The test is classed as biochemical. The method, then: Example 26—IDH1-R132H and IDH1-R132C Enzymatic Assay
Assays were performed in a 384-well black plate. An aliquot of 250 nL of compound was incubated with 10 μL of 30 nM IDH1-R132H or 10 nM IDH1-R132C recombinant protein in assay buffer (50 mM Tris pH=7.5, 150 mM NaCl, 5 mM MgCl2, 0.1% (w/v) Bovine Serum Albumin, and 0.01% Triton X-100) in each well at 25° C. for 15 minutes. After the plate was centrifuged briefly, an aliquot of 10 μL of 2 mM α-ketoglutarate and 20 μM NADPH solution prepared in assay buffer was then added to each well and the reaction was maintained at 25° C. for 45 minutes. An aliquot of 10 μL of diaphorase solution (0.15 U/mL diaphorase and 30 μM Resazurin in assay buffer) was added to each well. The plate was maintained at 25° C. for 15 minutes and then read on a plate reader with excitation and emission wavelengths at 535 nm and 590 nm, respectively. The IC50 of a given compound was calculated by fitting the dose response curve of inhibition of NADPH consumption at a given concentration with the four parameter logistic equation.

Sequence of IDH1-R132H recombinant protein (O75874 whole entry R132H): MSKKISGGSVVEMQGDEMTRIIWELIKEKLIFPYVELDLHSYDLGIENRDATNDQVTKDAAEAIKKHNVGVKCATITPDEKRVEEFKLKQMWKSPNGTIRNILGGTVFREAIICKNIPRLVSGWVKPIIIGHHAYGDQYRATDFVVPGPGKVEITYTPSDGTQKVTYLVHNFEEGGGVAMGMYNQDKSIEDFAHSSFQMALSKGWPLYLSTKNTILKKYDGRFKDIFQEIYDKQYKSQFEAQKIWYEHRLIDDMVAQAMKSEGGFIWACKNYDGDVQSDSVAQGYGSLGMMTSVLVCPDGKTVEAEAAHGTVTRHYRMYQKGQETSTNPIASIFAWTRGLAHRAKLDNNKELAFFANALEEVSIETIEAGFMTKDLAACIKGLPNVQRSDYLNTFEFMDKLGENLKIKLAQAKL

With “6-chloro-3-[(1S)-1-{[5-(2-oxo-1,3-oxazolidin-3-yl)-1,2,4-thiadiazol-3-yl]amino}ethyl]-1,2-dihydroquinolin-2-one [Compound I-12]”, the IC50 is more than 10 µM.
